# Laboratory results taken from patent publication US8722043B2, “Induction of p53 expression by neutralization of neuropilin-2 for the treatment of cancers” (Diaclone, priority 2008, dated 2014).
# Key:
# Assay type in all cases: cell-based, human
# [1] = tested on: Colo320 cells; experiment: MTT proliferation assay in the presence of siRNA-NRP-2; details: Colo320^siRNA-NRP-2 versus Colo320^siRNA-ctrl; 24, 48 and 72 hours
# Description: The MTT proliferation assay is based on the reduction of 3-(4,5-dimethylthiazol-2-yl)-2,5-diphenyltetrazolium bromide), by the mitochondrial succinate dehydrogenase of active live cells, to give formazan. The coloration intensity (OD) induced by this reaction is proportional to the number of live cells present during the assay, and to the metabolic activity thereof.
# 4000 HT29ctrl, HT29-NRP-2, Colo320^siRNA-ctrl or Colo320^siRNA-NRP-2 cells were seeded into a 96-well Maxisorp plate, in 100 μl of DMEM medium containing 10% of inactivated FCS. The assay was carried out in triplicate. At 24, 48 and 72 hours, respectively, 10 μl of MTT at 5 mg/ml were added to each well. After 2 hours of incubation at 37° C., 5% CO2, 200 μl of DMSO were added to each well after shaking, and the OD was read at 570 nm using a spectrophotometer. The results of these experiments are represented in FIG. 4.
# FIGS. 4.A and 4.B are histograms representing the results obtained in the proliferation assay carried out respectively with the HT29ctrl and HT29-NRP-2 cells and with the Colo320^siRNA-ctrl and Colo320^siRNA-NRP-2 cells. The coloration intensity (the optical density “OD”) corresponding to the production of formazan by the cells is indicated on the y-axis, and the times at which the viability tests were carried out are indicated on the x-axis. […]
# [2] = tested on: p53 protein; experiment: p53 expression in Colo320 cells expressing siRNA-NRP-2 (flow cytometry, Western blotting); details: Colo320^siRNA-NRP-2 versus Colo320^siRNA-ctrl
# Excerpt: FIG. 7 represents the results obtained by flow cytometry for the HT29-ctrl (panel A), HT29-NRP-2 (panel B), Colo320^siRNA-ctrl (panel C) and Colo320^siRNA-NRP-2 (panel D) cells labelled with an anti-p53 antibody. The curves in black lines represent the results of the labelling with a control antibody, and the curves in grey lines represent the results of the labelling with the anti-p53 antibody. The number of events (the number of cells) is indicated on the y-axis, the fluorescence intensity (corresponding to the labelling of the cells with the anti-p53 antibody) is represented on the x-axis.
# The protein extracts of the HT29-ctrl, HT29-NRP-2, Colo320^siRNA-ctrl and Colo320^siRNA-NRP-2 lines were also analysed by Western blotting using an anti-p53 antibody. After lysis of the cell lines, migration of the protein pellets obtained on a 10% polyacrylamide gel (10 μg of protein per well, standardized relative to the immunoblotting of actin), and then transfer onto a PVDF membrane, the PVDF membrane was incubated overnight with the p53 primary antibody (BD Biosciences, mouse anti-human p53) diluted to 1/500. The membranes, after washing in TBS/0.1% Tween20, were incubated for 1 hour with an anti-mouse HRP secondary antibody diluted to 1/12 500. The results are represented in FIG. 8.
# [3] = tested on: NRP-2 protein; experiment: NRP-2 expression after siRNA transfection (flow cytometry, C9 antibody); details: Colo320 cells transfected with pFiv H1/U6puro siRNA-NRP-2, from D7
# Description: The Colo320 line naturally expressing neuropilin-2 at its membrane surface was transfected with the plasmid pFiv H1/U6puro siRNA-NRP-2 using the Effectene® kit, Qiagen). In parallel, Colo320 cells were transfected with a control siRNA (siRNA-ctrl) provided with the pFiv H1/U6puro SiRNA expression vector kit (System Biosciences). The Colo320^siRNA-NRP-2 and Colo320^siRNA-ctrl transfected cells were then selected at D2 with 2 μg/ml of puromycin. The efficiency of the transfection was evaluated from D7 onwards by labelling with a murine anti-human NRP-2 IgG antibody (Clone C9, Santa Cruz Biotechnology) by flow cytometry: the results obtained are represented in FIG. 3.
# For each of the panels of FIG. 3, the number of events (the number of cells) is indicated on the y-axis, the fluorescence intensity (corresponding to the label of the cells with the anti-NRP-2 antibody C9) is represented on the x-axis. The distribution curves in black lines represent the results obtained after labelling with a control antibody, the distribution curves in grey lines represent the results obtained after labelling with the C9 antibody.
substance,measurement,setting,value
"siRNA-NRP-2: double-stranded siRNA directed against the NRP-2 transcripts, sense SEQ ID No. 31, antisense SEQ ID No. 32, expressed from plasmid (sense GGCUGGAAGUCAGCACUAAUUU; antisense AUUAGUGCUGACUUCCAGCCUU)",proliferation and survival (OD at 570 nm),[1],OD decreases
same,p53 expression (Western blotting),[2],strongly expressed
same,p53 expression (flow cytometry),[2],restoration of p53 expression
same,expression of the NRP-2 protein,[3],efficiently inhibited
